Experiments:
Details in all cases: 72 h
Caco-2 [1] = test: cell viability relative to DMSO; higher = less toxic
Calu-3 [2] = test: as above
HepG2 [3] = test: as above
U2OS [4] = test: as above
Vero E6 [5] = test: as above
HepG2 [6] = test: relative viability EC50 (midpoint between 100% and the lowest measured viability); higher = less toxic
Caco-2 [7] = test: drug sensitivity score (DSS) for viability; higher = more toxic; extreme values may be limits of the assay
Calu-3 [8] = test: as above
HepG2 [9] = test: as above
U2OS [10] = test: as above
Vero E6 [11] = test: as above
Caco-2 [12] = test: relative viability EC50 (midpoint between 100% and the lowest measured viability); higher = less toxic
U2OS [13] = test: as above
Vero E6 [14] = test: as above
Calu-3 [15] = test: as above

Row | SMILES | cell viability (Caco-2 [1]; 1 nM) [%] | cell viability (Caco-2 [1]; 10 nM) [%] | cell viability (Caco-2 [1]; 100 nM) [%] | cell viability (Caco-2 [1]; 1000 nM) [%] | cell viability (Caco-2 [1]; 10000 nM) [%] | cell viability (Calu-3 [2]; 1 nM) [%] | cell viability (Calu-3 [2]; 10 nM) [%] | cell viability (Calu-3 [2]; 100 nM) [%] | cell viability (Calu-3 [2]; 1000 nM) [%] | cell viability (Calu-3 [2]; 10000 nM) [%] | cell viability (HepG2 [3]; 1 nM) [%] | cell viability (HepG2 [3]; 10 nM) [%] | cell viability (HepG2 [3]; 100 nM) [%] | cell viability (HepG2 [3]; 1000 nM) [%] | cell viability (HepG2 [3]; 10000 nM) [%] | cell viability (U2OS [4]; 1 nM) [%] | cell viability (U2OS [4]; 10 nM) [%] | cell viability (U2OS [4]; 100 nM) [%] | cell viability (U2OS [4]; 1000 nM) [%] | cell viability (U2OS [4]; 10000 nM) [%] | cell viability (Vero E6 [5]; 1 nM) [%] | cell viability (Vero E6 [5]; 10 nM) [%] | cell viability (Vero E6 [5]; 100 nM) [%] | cell viability (Vero E6 [5]; 1000 nM) [%] | cell viability (Vero E6 [5]; 10000 nM) [%] | relative viability EC50 (HepG2 [6]) [µM] | drug sensitivity score (Caco-2 [7]) | drug sensitivity score (Calu-3 [8]) | drug sensitivity score (HepG2 [9]) | drug sensitivity score (U2OS [10]) | drug sensitivity score (Vero E6 [11]) | relative viability EC50 (Caco-2 [12]) [µM] | relative viability EC50 (U2OS [13]) [µM] | relative viability EC50 (Vero E6 [14]) [µM] | relative viability EC50 (Calu-3 [15]) [µM]
1 | CCCC(CCC)C(=O)Nc1ccn([C@@H]2O[C@H](CO)[C@@H](O)C2(F)F)c(=O)n1 | 94.7 | 106 | 94.3 | 96.3 | 66.7 | 98.3 | 97.3 | 91 | 91.7 | 67.9 | 98.3 | 108 | 85 | 39.4 | 30.1 | 97.5 | 100 | 101 | 110 | 68.2 | 93.7 | 93 | 87.7 | 98.3 | 63 | 0.259 | 2.1 | 2.3 | 13 | 1 | 2 |  |  |  | 
2 | CNC(=O)c1ccc(C)c(-n2c(C)cc(OCc3ccc(F)cc3F)c(Br)c2=O)c1 | 90.9 | 95.3 | 93 | 79.6 | 75.4 | 94.7 | 92.6 | 74 | 93.6 | 56.8 | 111 | 104 | 106 | 99.7 | 67.7 | 101 | 99.2 | 90.2 | 81.9 | 78.7 | 98.7 | 92 | 85.5 | 82.3 | 58.8 |  | 3.1 | 5.2 | 1.5 | 3.1 | 5 | > 10 | > 10 |  | 
3 | Cc1ccc(/C=N/NC(=O)c2ccccc2Oc2ccccc2)o1 | 96 | 99.6 | 100 | 95.2 | 88.7 |  |  |  |  |  | 103 | 103 | 91.7 | 94.2 | 102 | 106 | 97.3 | 98.1 | 93 | 98.6 | 97 | 101 | 98.9 | 95.6 | 93.7 | > 10 | 0.1 |  | 0 | 0 | 0 | > 10 | > 10 | > 10 | 
4 | Cn1ncnc1COc1nn2c(-c3cc(F)ccc3F)nnc2cc1C(C)(C)C |  |  |  |  |  |  |  |  |  |  |  |  |  |  |  |  |  |  |  |  |  |  |  |  |  |  |  | 0 | 0 | 0 | 0 |  |  |  | 
5 | O=C(NCC(=O)N1CC[C@H](N[C@H]2CC[C@@](O)(c3ccc(-c4ncccn4)cn3)CC2)C1)c1cccc(C(F)(F)F)c1 | 104 | 108 | 92.7 | 92.7 | 96.8 |  |  |  |  |  | 103 | 97.6 | 105 | 97.4 | 100 | 97.8 | 105 | 97.7 | 101 | 96.4 | 107 | 102 | 101 | 99.4 | 98.7 | > 10 | 0 |  | 0 | 0 | 0 | > 10 | > 10 | > 10 | 
6 | CCCCCCCN(CC)CCC[C@@H](O)c1ccc(NS(C)(=O)=O)cc1 (racemic) [ibutilide] |  |  |  |  |  |  |  |  |  |  |  |  |  |  |  |  |  |  |  |  |  |  |  |  |  |  |  | 0 | 0 | 0 | 0 |  |  |  | 
7 | CCCCCCCCCCCCCCCC=O [1-hexadecanal] | 104 | 98 | 85.6 | 95.2 | 108 |  |  |  |  |  | 109 | 105 | 102 | 95.8 | 97 | 102 | 104 | 96.3 | 104 | 97.5 | 106 | 98.4 | 106 | 96.5 | 102 | > 10 | 0 |  | 0 | 0 | 0 | > 10 | > 10 | > 10 | 
8 | CC(=C\c1ccc(Cl)cc1)/C(C)=N/O [AP-18] | 99.5 | 104 | 90.4 | 98.1 | 95.7 |  |  |  |  |  | 103 | 95.3 | 89.6 | 101 | 107 | 100 | 106 | 97.6 | 103 | 100 | 104 | 106 | 102 | 105 | 99.3 | > 10 | 0 |  | 0 | 0 | 0 | > 10 | > 10 | > 10 | 
9 | CC(C)Nc1cc(-c2c[nH]c(C(=O)N[C@H](CO)c3cccc(Cl)c3)c2)c(Cl)cn1 [BVD-523] | 105 | 106 | 101 | 76.7 | 61.2 | 106 | 97.4 | 89.7 | 92.1 | 57.5 | 104 | 102 | 92.6 | 51.4 | 19.5 | 103 | 101 | 95.5 | 96.7 | 69.3 | 100 | 104 | 91.9 | 80.7 | 52.9 | 0.703 | 4.7 | 3.5 | 10.5 | 1.9 | 4.5 |  |  |  | 
10 | NCCNS(=O)(=O)c1ccc(Cl)c2ccncc12 [CKI-7] | 105 | 110 | 102 | 102 | 86.1 |  |  |  |  |  | 110 | 94.9 | 105 | 102 | 107 | 95.6 | 100 | 98.8 | 102 | 98.7 |  |  |  |  |  | > 10 | 0.1 |  | 0 | 0 |  | > 10 | > 10 |  | 
11 | Cc1c(Cl)cccc1S(=O)(=O)Nc1nc(NCCc2ccccc2)nc2c1CN(Cc1ccccc1)CC2 [CaMKII-IN-1] | 98.9 | 96.1 | 93 | 102 | 83.1 |  |  |  |  |  | 88.3 | 97.1 | 90.6 | 101 | 93.6 | 102 | 102 | 105 | 98.9 | 88.7 | 95.3 | 104 | 98.2 | 97.7 | 108 | > 10 | 0.3 |  | 0 | 0 | 0 | > 10 | > 10 | > 10 | 
12 | NC(=O)c1nc(F)cnc1O [Favipiravir] |  |  |  |  |  | 101 | 93.2 | 92.5 | 94.6 | 107 | 104 | 102 | 109 | 91.8 | 98.2 |  |  |  |  |  |  |  |  |  |  | > 10 |  | 0 | 0 |  |  |  |  |  | > 10
13 | CC(C)CNc1ccnc(NCc2csc(-c3ccccc3)n2)n1 [KHS-101] | 91.3 | 103 | 98.1 | 85.2 | 53.3 | 94.1 | 91.6 | 101 | 89.3 | 64.8 | 104 | 102 | 95.3 | 86.4 | 16.4 | 99.9 | 97.9 | 102 | 97 | 72.9 | 103 | 99 | 103 | 101 | 78.1 | 1.92 | 4.6 | 3.2 | 6.9 | 1.6 | 0.7 |  |  | > 10 | 
14 | CC(O)c1cc(C(=O)N[C@@H](C)Cn2ccc(-c3ccc(C#N)c(Cl)c3)n2)n[nH]1 (stereo partly specified) [ODM-201] | 104 | 89.8 | 102 | 106 | 103 |  |  |  |  |  | 88.1 | 111 | 92.6 | 112 | 105 | 98.3 | 98.2 | 103 | 93.4 | 111 | 95.6 | 101 | 93.1 | 94.5 | 103 | > 10 | 0 |  | 0 | 0 | 0 | > 10 | > 10 | > 10 | 
15 | CCOC(=O)c1cc2ccc(O)cc2oc1=O [YZ9] | 98.6 | 94.3 | 102 | 98.8 | 99.5 |  |  |  |  |  | 98.6 | 103 | 107 | 96.5 | 117 | 99.3 | 94.7 | 92.9 | 103 | 104 | 92 | 95.5 | 96.3 | 101 | 102 | > 10 | 0 |  | 0 | 0 | 0 | > 10 | > 10 | > 10 | 
16 | C[C@H](Nc1ncnc2[nH]cnc12)c1nc2ccc(F)cc2c(=O)n1-c1ccccc1 [acalisib] | 105 | 104 | 91.6 | 102 | 74.9 | 107 | 103 | 104 | 93.8 | 65.1 | 106 | 107 | 109 | 93.7 | 83.6 | 109 | 104 | 106 | 99.4 | 94.3 | 104 | 101 | 95.8 | 89.9 | 76.2 | > 10 | 0.9 | 2.7 | 0.9 | 0 | 1.5 |  | > 10 | > 10 | 
17 | O=C(O)CCCCC(=O)O [adipic-acid] | 89 | 87 | 95.1 | 96.6 | 105 |  |  |  |  |  | 104 | 108 | 94.4 | 97.4 | 105 | 102 | 96.7 | 99.6 | 103 | 104 | 94.9 | 99.9 | 89.3 | 93.1 | 102 | > 10 | 0 |  | 0 | 0 | 0 | > 10 | > 10 | > 10 | 
